Laboratory results published in paper PMC4865847, “Putative histidine kinase inhibitors with antibacterial effect against multi-drug resistant clinical isolates identified by in vitro and in silico screens” (Scientific Reports, 2016).
Read-outs that look alike come from different tables or passages of the source.

Key:
E. coli PhoR (PhoR^E) = molecular target: T1, E. coli PhoR (PhoR^E) (Escherichia coli, UniProt P08400); experiment: In vitro autophosphorylation kinase assay with γ-32P-ATP, PhoR^E; assay type: biochemical; conditions: IC50 PhoR^E, autophosphorylation, one time point (30 sec), 10% DMSO
T1 construct: The catalytic portion (DHp and CA domain) of E. coli PhoR (PhoR^E); made in house; host or cells: E. coli RIL
Method: (§1) To evaluate the inhibitory capacity of selected hits from DSF, SBVS and LBSS in vitro autophosphorylation kinase assays with γ-^32P-ATP were performed as previously described. Ligands were dissolved in 100% DMSO. […] Controls lacking ligands contained an equal concentration of DMSO. Inhibition of autophosphorylation was determined by incubating 0.12 mg/ml (≈4 μM) HK and up to 20 mM fragment in kinase buffer (50 mM Tris HCl, pH 8.5, 50 mM KCl, 5 mM MgCl2, 0.5 mM EDTA and 0.1 mM DTT). Autophosporylation reactions were initiated by addition of 0.1 μCi/μl γ-^32P-ATP containing from 0.03 to 0.06 μM ATP (final concentrations). Autophosphorylation was quenched with 2xSDS-PAGE sample buffer supplemented with 50 mM EDTA. […] After electrophoresis, the bottoms of the gels were removed to lower the background from the unincorporated radiolabeled ATP. Gels were dried without staining on a Bio-Rad Gel Air drying system and the phosphorylated protein was quantified by phosphor-imaging. Prism GraphPad was used for curve fitting and statistical analysis.

S. pneumoniae WalK = molecular target: T2, S. pneumoniae WalK (Streptococcus pneumoniae, UniProt Q8DPL8); experiment: In vitro autophosphorylation kinase assay with γ-32P-ATP, WalK; assay type: biochemical; conditions: IC50 WalK, autophosphorylation, one time point (30 sec), 10% DMSO
T2 construct: WalK (amino acids from 208 to 449); N-terminal His6-3C site of vector pOPINF (own knowledge of the vector); made in house; host or cells: E. coli RIL
Method: as §1

Escherichia coli = experiment: Antibacterial susceptibility testing (MIC/MBC), E. coli; assay type: cell-based; conditions: Escherichia coli, strain CFT 073; read-out: MIC E. coli CFT 073
Method: (§2) Minimal inhibitory concentrations (MICs) were determined following a standard double-dilution method. […] For S. pneumoniae MICs were determined by adapting the standard double-dilution method to anaerobic conditions and of this microorganism (use of Todd Hewitt Yeast extract with 200 U/mL of catalase and continuous monitoring of growth).

S. aureus PhoR (PhoR^S) = S. aureus PhoR (PhoR^S) (Staphylococcus aureus, UniProt Q2FXN7); experiment: In vitro autophosphorylation kinase assay with γ-32P-ATP, PhoR^S; assay type: biochemical; conditions: autophosphorylation, one time point (30 sec), 10% DMSO
Method: (§3) To evaluate the inhibitory capacity of selected hits from DSF, SBVS and LBSS in vitro autophosphorylation kinase assays with γ-^32P-ATP were performed as previously described. Ligands were dissolved in 100% DMSO. […] Controls lacking ligands contained an equal concentration of DMSO. Inhibition of autophosphorylation was determined by incubating 0.12 mg/ml (≈4 μM) HK and up to 20 mM fragment in kinase buffer (50 mM Tris HCl, pH 8.5, 50 mM KCl, 5 mM MgCl2, 0.5 mM EDTA and 0.1 mM DTT). Autophosporylation reactions were initiated by addition of 0.1 μCi/μl γ-^32P-ATP containing from 0.03 to 0.06 μM ATP (final concentrations). Autophosphorylation was quenched with 2xSDS-PAGE sample buffer supplemented with 50 mM EDTA. Samples were applied without heating to 15% (w/v) Tris-glycine SDS-polyacrylamide gels. After electrophoresis, the bottoms of the gels were removed to lower the background from the unincorporated radiolabeled ATP. Gels were dried without staining on a Bio-Rad Gel Air drying system and the phosphorylated protein was quantified by phosphor-imaging. Prism GraphPad was used for curve fitting and statistical analysis.

T. maritima HK853 = molecular target: T3, T. maritima HK853 (Thermotoga maritima, UniProt Q9WZV7); experiment: In vitro autophosphorylation kinase assay with γ-32P-ATP, HK853; assay type: biochemical
T3 sequence (Q9WZV7 232-489): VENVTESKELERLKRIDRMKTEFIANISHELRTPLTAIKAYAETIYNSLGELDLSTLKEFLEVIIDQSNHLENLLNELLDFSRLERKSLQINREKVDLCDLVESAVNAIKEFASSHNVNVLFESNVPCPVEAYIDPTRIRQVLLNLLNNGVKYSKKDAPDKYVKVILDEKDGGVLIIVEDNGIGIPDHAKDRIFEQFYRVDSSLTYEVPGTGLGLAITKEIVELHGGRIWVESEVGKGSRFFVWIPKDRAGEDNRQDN
Method: as §3

Staphylococcus aureus = experiment: Antibacterial susceptibility testing (MIC/MBC), S. aureus; assay type: cell-based; conditions: for MIC: Staphylococcus aureus, DSM20231, strain DSM 20231, read-out: MIC S. aureus DSM 20231
Method: as §2

[1] = test system: Staphylococcus epidermidis; experiment: Antibacterial susceptibility testing (MIC/MBC), S. epidermidis; assay type: cell-based; conditions: Staphylococcus epidermidis, DSM20044, strain DSM 20044; read-out: MIC S. epidermidis DSM 20044
Method: as §2

Chain of S. aureus PhoR (PhoR^S) (Q2FXN7 entry or part of it): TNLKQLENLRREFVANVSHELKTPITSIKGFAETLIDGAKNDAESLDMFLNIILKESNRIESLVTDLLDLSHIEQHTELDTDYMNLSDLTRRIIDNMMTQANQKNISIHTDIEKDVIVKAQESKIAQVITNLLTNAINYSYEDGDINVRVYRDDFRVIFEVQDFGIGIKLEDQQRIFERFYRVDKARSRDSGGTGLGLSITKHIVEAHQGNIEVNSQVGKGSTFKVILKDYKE
T1 sequence (P08400 210-425): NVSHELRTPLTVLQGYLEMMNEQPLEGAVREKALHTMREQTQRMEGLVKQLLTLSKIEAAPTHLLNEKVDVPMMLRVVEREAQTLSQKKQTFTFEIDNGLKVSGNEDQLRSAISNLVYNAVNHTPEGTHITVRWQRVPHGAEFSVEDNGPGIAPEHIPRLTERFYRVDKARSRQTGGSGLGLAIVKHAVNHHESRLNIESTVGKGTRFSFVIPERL
T2 sequence (Q8DPL8 208-449): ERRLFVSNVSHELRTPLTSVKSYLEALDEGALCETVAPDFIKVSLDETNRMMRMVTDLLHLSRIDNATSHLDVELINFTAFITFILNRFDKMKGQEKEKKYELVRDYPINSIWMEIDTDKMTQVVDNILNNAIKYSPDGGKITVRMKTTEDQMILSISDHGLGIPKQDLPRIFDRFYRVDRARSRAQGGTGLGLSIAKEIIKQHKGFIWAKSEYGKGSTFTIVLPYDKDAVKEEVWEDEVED

Structure (SMILES): CC(OC(=O)c1cccc(S(=O)(=O)N2CCc3ccccc3C2)c1)C(=O)NC(N)=O (stereo not drawn) [S2]
- IC50 (E. coli PhoR (PhoR^E)): > 5 mM
- IC50 (S. pneumoniae WalK): > 5 mM
- MIC (Escherichia coli): > 500 µg/mL
- IC50 (S. aureus PhoR (PhoR^S); IC50 PhoR^S): > 5 mM
- IC50 (T. maritima HK853): > 5 mM
- MIC (Staphylococcus aureus): > 500 µg/mL
- MIC [1]: > 500 µg/mL

Structure (SMILES): c1ccc2cc(CNc3ccc4c(c3)OCCO4)ccc2c1 [S7]
- IC50 (E. coli PhoR (PhoR^E)): > 5 mM
- IC50 (S. pneumoniae WalK): > 5 mM
- MIC (Escherichia coli): > 500 µg/mL
- IC50 (S. aureus PhoR (PhoR^S); read-out: IC50 PhoR^S): < 5 mM
- IC50 (T. maritima HK853): > 5 mM
- MIC (Staphylococcus aureus): > 500 µg/mL
- MBC S. aureus DSM 20231 (Staphylococcus aureus; strain DSM 20231): > 500 µg/mL
- MIC [1]: > 500 µg/mL

Structure (SMILES): CC(NCc1cccc2ccccc12)c1ccc(F)cc1 (stereo not drawn) [S8]
- IC50 (E. coli PhoR (PhoR^E)): > 5 mM
- IC50 (S. pneumoniae WalK): > 5 mM
- MIC (Escherichia coli): > 500 µg/mL
- IC50 (S. aureus PhoR (PhoR^S); read-out: IC50 PhoR^S): < 5 mM
- IC50 (T. maritima HK853): > 5 mM
- MIC (Staphylococcus aureus): > 500 µg/mL
- MIC [1]: > 500 µg/mL

Structure (SMILES): CC(NC(=O)C1CC(=O)N(c2ccccc2)C1)c1cccc(NC(=O)c2ccccc2)c1 (stereo not drawn) [S3]
- IC50 (E. coli PhoR (PhoR^E)): > 5 mM
- IC50 (S. pneumoniae WalK): > 5 mM
- MIC (Escherichia coli): > 500 µg/mL
- IC50 (S. aureus PhoR (PhoR^S); IC50 PhoR^S): > 5 mM
- IC50 (T. maritima HK853): > 5 mM
- MIC (Staphylococcus aureus): > 500 µg/mL
- MIC [1]: > 500 µg/mL

Structure (SMILES): CC(NCc1cccc2ccccc12)c1cccc(F)c1 (stereo not drawn) [S9]
- IC50 (E. coli PhoR (PhoR^E)): > 5 mM
- IC50 (S. pneumoniae WalK): > 5 mM
- MIC (Escherichia coli): > 500 µg/mL
- IC50 (S. aureus PhoR (PhoR^S); IC50 PhoR^S): > 5 mM
- IC50 (T. maritima HK853): > 5 mM
- MIC (Staphylococcus aureus): > 500 µg/mL
- MIC [1]: > 500 µg/mL
